pEC50: −log10 of the molar value.

The target of test [1] is T1, TLR7 (Homo sapiens, UniProt Q9NYK1).
T1 construct: human HEK-Blue cells co-expressing a TLR7 or TLR8 gene
T1 sequence (Q9NYK1 27-1049): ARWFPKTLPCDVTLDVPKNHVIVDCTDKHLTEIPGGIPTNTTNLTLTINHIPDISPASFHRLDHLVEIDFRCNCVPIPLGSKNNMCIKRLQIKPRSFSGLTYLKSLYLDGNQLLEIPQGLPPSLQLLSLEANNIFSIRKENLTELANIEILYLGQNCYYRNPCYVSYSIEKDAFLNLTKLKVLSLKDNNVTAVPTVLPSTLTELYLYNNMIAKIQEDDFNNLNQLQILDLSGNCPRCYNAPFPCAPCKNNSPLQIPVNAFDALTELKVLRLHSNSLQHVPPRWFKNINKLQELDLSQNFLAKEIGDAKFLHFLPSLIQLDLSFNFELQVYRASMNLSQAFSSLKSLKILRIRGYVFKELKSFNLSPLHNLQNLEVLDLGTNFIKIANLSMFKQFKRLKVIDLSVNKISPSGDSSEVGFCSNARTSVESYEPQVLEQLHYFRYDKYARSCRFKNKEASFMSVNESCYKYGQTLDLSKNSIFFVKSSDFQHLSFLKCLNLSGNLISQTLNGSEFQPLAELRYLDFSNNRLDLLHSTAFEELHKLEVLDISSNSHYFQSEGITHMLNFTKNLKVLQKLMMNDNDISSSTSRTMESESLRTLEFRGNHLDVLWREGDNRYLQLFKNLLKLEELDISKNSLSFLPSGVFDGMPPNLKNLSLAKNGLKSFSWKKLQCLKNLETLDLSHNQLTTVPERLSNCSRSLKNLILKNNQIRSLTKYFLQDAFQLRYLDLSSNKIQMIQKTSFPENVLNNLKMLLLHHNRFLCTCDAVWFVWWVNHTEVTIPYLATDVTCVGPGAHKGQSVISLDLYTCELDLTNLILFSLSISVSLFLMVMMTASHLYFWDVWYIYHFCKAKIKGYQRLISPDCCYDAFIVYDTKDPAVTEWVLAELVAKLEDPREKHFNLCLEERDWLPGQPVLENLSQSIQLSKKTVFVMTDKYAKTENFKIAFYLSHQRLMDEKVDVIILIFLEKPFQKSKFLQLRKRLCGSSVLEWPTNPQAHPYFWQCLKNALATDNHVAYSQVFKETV
The test can be described thus: In vitro human TLR7 binding reporter assay (HEK-Blue, NF-kB/AP1-inducible SEAP). The test is classed as cell-based. The note with it: activity range class, read-out: TLR7 Agonist EC50. The essentials:
(§1)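 HEK-Blue cells expressing human TLR7 or TLR8 with NF-kB/AP1-inducible SEAP reporter, plated 24 h, then compound-treated 18 h at 37° C, 5% CO2. EC50 normalized to 100% Ymax set by 50 μM reference standard.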

In test [2] the test system is THP-1 cells. In words: Measurement of IL-1β production, hTRF protocol (second alternative procedure), THP-1 cells. The test is classed as cell-based, human. The settings on record: Homo sapiens, THP-1, IL-1β production, human; read-out: NLRP3 hILIB EC50. The essentials: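 Compounds, dilution series starting at a final 10 μM, were incubated 2 hours at 37° C with PMA-differentiated THP-1 cells (50 ng/ml overnight; 50,000 cells/well, 2% FBS RPMI). Released IL-1β quantified in supernatant by hTRF kit with 1:40 antibody dilution, 4° C overnight, 665/615 nm ratio.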

The target in test [3] is T2, TLR8 (Homo sapiens, UniProt Q9NR97).
T2 construct: human HEK-Blue cells co-expressing a TLR7 or TLR8 gene
T2 sequence (Q9NR97 27-1041): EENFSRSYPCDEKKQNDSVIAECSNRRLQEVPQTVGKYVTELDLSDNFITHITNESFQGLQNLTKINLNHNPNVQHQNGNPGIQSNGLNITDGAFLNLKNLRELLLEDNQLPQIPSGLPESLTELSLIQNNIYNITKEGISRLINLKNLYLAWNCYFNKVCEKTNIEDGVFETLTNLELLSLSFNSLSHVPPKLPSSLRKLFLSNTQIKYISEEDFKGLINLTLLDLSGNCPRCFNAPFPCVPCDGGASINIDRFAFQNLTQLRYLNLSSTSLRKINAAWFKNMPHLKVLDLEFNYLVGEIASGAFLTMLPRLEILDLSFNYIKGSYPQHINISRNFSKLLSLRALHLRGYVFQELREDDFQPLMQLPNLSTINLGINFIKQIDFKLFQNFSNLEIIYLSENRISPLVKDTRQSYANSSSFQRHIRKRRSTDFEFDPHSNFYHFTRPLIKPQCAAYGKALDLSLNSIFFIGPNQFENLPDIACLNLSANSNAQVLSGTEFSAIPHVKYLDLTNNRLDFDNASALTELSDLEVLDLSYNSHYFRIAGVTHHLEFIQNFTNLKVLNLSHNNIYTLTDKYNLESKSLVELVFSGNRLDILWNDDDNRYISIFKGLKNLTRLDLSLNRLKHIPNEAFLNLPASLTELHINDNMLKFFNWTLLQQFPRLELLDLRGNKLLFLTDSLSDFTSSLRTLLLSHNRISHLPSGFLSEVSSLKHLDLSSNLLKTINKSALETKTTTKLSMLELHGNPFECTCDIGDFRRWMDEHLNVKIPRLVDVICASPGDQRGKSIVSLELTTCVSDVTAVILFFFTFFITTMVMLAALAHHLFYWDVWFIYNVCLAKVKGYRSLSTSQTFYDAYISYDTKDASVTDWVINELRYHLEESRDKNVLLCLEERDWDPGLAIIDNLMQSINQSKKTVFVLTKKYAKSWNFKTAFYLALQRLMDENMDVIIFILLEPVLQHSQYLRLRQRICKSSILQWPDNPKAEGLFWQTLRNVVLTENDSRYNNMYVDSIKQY
In words: In vitro human TLR8 binding reporter assay (HEK-Blue, NF-kB/AP1-inducible SEAP). The test is classed as cell-based. The note with it: activity range class, read-out: TLR8 Agonist EC50. The essentials: as §1
A general note: Reporter assays use an easily measured gene product as a stand-in for the process of interest.

The term pEC50 denotes the EC50 on a negative log10 scale, so that one unit is a factor of ten. As for `Nc1nc2cc(-c3cc[nH]n3)ccc2c2nn(CCCCO)cc12` [Example 351], the pEC50 was under 4.00 in test [1], 6.19 in test [2] and under 4.00 in test [3].
In the case of `Nc1nc2cc(-c3cc[nH]n3)ccc2c2nn(CCOC(F)(F)F)cc12` [Example 352], the negative-log EC50 (pEC50) in test [1] is under 4.00; in test [2], 7.10; in test [3], under 4.00.
On to `Nc1nc2cc(-c3cc[nH]n3)ccc2c2nn(CC3(CO)CC3)cc12` [Example 353], for which the pEC50 was under 4.00 in test [1], 6.21 in test [2] and under 4.00 in test [3].
In the case of `Nc1nc2cc(-c3cc[nH]n3)ccc2c2nn(CCC(F)F)cc12` [Example 354], the negative-log EC50 (pEC50) in test [1] was under 4.00; in test [2], 6.52; in test [3] it was under 4.00.
Regarding `Cc1nc(Cn2cc3c(N)nc4cc(-c5cc[nH]n5)ccc4c3n2)no1` [Example 355], the values for the negative-log EC50 (pEC50) in test [1], in test [2] and in test [3] were under 4.00, 5.59 and under 4.00, respectively.
With `CCC(CO)Cn1cc2c(N)nc3cc(-c4cc[nH]n4)ccc3c2n1` (stereo not drawn) [Example 356], the figures for the pEC50 in test [1], in test [2] and in test [3] were under 4.00, 6.08 and under 4.00, respectively.
In the case of `Nc1nc2cc(-c3cc[nH]n3)ccc2c2nn(Cc3cc[nH]n3)cc12` [Example 357], the pEC50 in test [1] is under 4.00; in test [2], 6.72; in test [3], under 4.00.
On to `Nc1nc2cc(-c3cc[nH]n3)ccc2c2nn(Cc3cn[nH]c3)cc12` [Example 358], for which the negative-log EC50 (pEC50) is under 4.00 in test [1], 6.74 in test [2] and under 4.00 in test [3].
Consider `Nc1nc2cc(-c3cc[nH]n3)ccc2c2c1cnn2Cc1cn[nH]c1` [Example 359], for which the pEC50 in test [1] was under 4.00; in test [2], 5.84; in test [3], under 4.00.
With `Nc1nc2cc(-c3cc[nH]n3)ccc2c2nn(Cc3cccnn3)cc12` [Example 360], the pEC50 was under 4.00 in test [1], 6.96 in test [2] and under 4.00 in test [3].
In the case of `Nc1nc2cc(-c3cc[nH]n3)ccc2c2nn(CCc3c[nH]cn3)cc12` [Example 361], the pEC50 in test [1] is under 4.00; in test [2] it was 6.72; in test [3], under 4.00.
Regarding `Nc1nc2cc(-c3cc[nH]n3)ccc2c2nn(Cc3cscn3)cc12` [Example 362], the negative-log EC50 (pEC50) is under 4.00 in test [1], 7.15 in test [2] and under 4.00 in test [3].
With `Nc1nc2cc(-c3cc[nH]n3)ccc2c2nn(C[C@@H]3CC(F)(F)CN3)cc12` [Example 363], the negative-log EC50 (pEC50) is under 4.00 in test [1], 5.74 in test [2] and under 4.00 in test [3].
Take `Nc1nc2cc(-c3cc[nH]n3)ccc2c2nn(C[C@H](O)CO)cc12` [Example 364]: the negative logarithm of the EC50 (pEC50) in test [1] was under 4.00; in test [2] it was 5.83; in test [3], under 4.00.
On to `Nc1nc2cc(-c3cc[nH]n3)ccc2c2nn(C[C@@H](O)CO)cc12` [Example 365], for which the pEC50 in test [1] was under 4.00; in test [2], 5.73; in test [3] it was under 4.00.
On to `CCC(O)Cn1cc2c(N)nc3cc(-c4cc[nH]n4)ccc3c2n1` (stereo not drawn) [Example 366], for which the results for the negative-log EC50 (pEC50) in test [1], in test [2] and in test [3] were under 4.00, 6.38 and under 4.00, respectively.
In the case of `CC[C@H](O)Cn1cc2c(N)nc3cc(-c4cc[nH]n4)ccc3c2n1` [Example 367], the pEC50 in test [1] is under 4.00; in test [2], 6.64; in test [3] it was under 4.00.
Take `CC[C@@H](O)Cn1cc2c(N)nc3cc(-c4cc[nH]n4)ccc3c2n1` [Example 368]: the pEC50 in test [1] is under 4.00; in test [2], 6.28; in test [3], under 4.00.
As to `C[C@H](O)Cn1cc2c(N)nc3cc(-c4cc[nH]n4)ccc3c2n1` [Example 369], the pEC50 in test [1] is under 4.00; in test [2], 6.72; in test [3], under 4.00.
With `C[C@@H](O)Cn1cc2c(N)nc3cc(-c4cc[nH]n4)ccc3c2n1` [Example 370], the negative logarithm of the EC50 (pEC50) in test [1] is under 4.00; in test [2] it was 6.42; in test [3], under 4.00.
Turning to `CC(C)OCC(O)Cn1cc2c(N)nc3cc(-c4cc[nH]n4)ccc3c2n1` (stereo not drawn) [Example 371], the negative-log EC50 (pEC50) in test [1] was under 4.00; in test [2], 5.71; in test [3], under 4.00.
As for `COC[C@H](O)Cn1cc2c(N)nc3cc(-c4cc[nH]n4)ccc3c2n1` [Example 372], the pEC50 in test [1] is under 4.00; in test [2] it was 6.06; in test [3], under 4.00.
With `COC[C@@H](O)Cn1cc2c(N)nc3cc(-c4cc[nH]n4)ccc3c2n1` [Example 373], the pEC50 in test [1] was under 4.00; in test [2], 5.90; in test [3], under 4.00.
With `CC(C)C(O)Cn1cc2c(N)nc3cc(-c4cc[nH]n4)ccc3c2n1` (stereo not drawn) [Example 374], the negative-log EC50 (pEC50) in test [1] is under 4.00; in test [2], 6.19; in test [3], under 4.00.
For `CC(C)(C)OCC(O)Cn1cc2c(N)nc3cc(-c4cc[nH]n4)ccc3c2n1` (stereo not drawn) [Example 375], the negative-log EC50 (pEC50) in test [1] was under 4.00; in test [2], 5.39; in test [3] it was under 4.00.
Regarding `N#CC[C@H](O)Cn1cc2c(N)nc3cc(-c4cc[nH]n4)ccc3c2n1` [Example 380], the figures for the negative-log EC50 (pEC50) in test [1], in test [2] and in test [3] were under 4.00, 6.11 and under 4.00, respectively.
On to `N#CC[C@@H](O)Cn1cc2c(N)nc3cc(-c4cc[nH]n4)ccc3c2n1` [Example 381], for which the pEC50 in test [1] was under 4.00; in test [2], 6.13; in test [3], under 4.00.
As to `Nc1nc2cc(-c3cc[nH]n3)ccc2c2nn(C[C@@H]3C[C@H](O)CN3)cc12` [Example 382], the negative-log EC50 (pEC50) was under 4.00 in test [1], 5.27 in test [2] and under 4.00 in test [3].
With `Nc1nc2cc(-c3cc[nH]n3)ccc2c2nn(CCN3CCCC3=O)cc12` [Example 383], the pEC50 in test [1] is under 4.00; in test [2], 5.86; in test [3], under 4.00.
For the molecule `Nc1nc2cc(-c3cc[nH]n3)ccc2c2nn(C[C@@H]3CCC(=O)N3)cc12` [Example 384], the values for the pEC50 in test [1], in test [2] and in test [3] were under 4.00, 6.06 and under 4.00, respectively.
Regarding `Nc1nc2cc(-c3cc[nH]n3)ccc2c2nn(C[C@H]3CCC(=O)N3)cc12` [Example 385], the pEC50 in test [1] was under 4.00; in test [2], 5.60; in test [3] it was under 4.00.

For the origin of these results see US12037344B2, “NLRP3 modulators” (INNATE TUMOR IMMUNITY, INC., priority 2018, dated 2024).
